Here are results for 13 molecules from patent publication US4071627A, “2-Oximino-tetrahydro-1,4-thiazin-5-one compounds and pesticidal carbamate derivatives” (priority 1976, dated 1978).

Common to all, as to assay type: in vivo
What all share (design): key: A: excellent control; B: partial control; C: no control

Test [1] concerns two-spotted mite (Tetranychus urticae Koch). In words: Mite Foliage Spray Test. Particulars: 500 ppm, six days, adults and nymphs. How it is done: (§1) Suspensions of the test compounds were prepared by dissolving one gram of compound in 50 milliliters of acetone in which had been dissolved 0.1 gram (10 percent of the weight of compound) of an alkylphenoxy polyethoxyethanol surfactant, as an emulsifying or dispersing agent. The resulting solution was mixed into 150 milliliters of water to give roughly 200 milliliters of a suspension containing the compound in finely divided form. The thus-prepared stock suspension contained 0.5 percent by weight of test compound. The test concentrations in parts per million by weight employed in the tests described hereinbelow were obtained by appropriate dilutions of the stock suspension with water. The test procedures were as follows:
Adults and nymphal stages of the two-spotted mite (Tetranychus urticae Koch), reared on Tengergreen bean plants at 80±5 percent relative humidity, were the test organisms. Infested leaves from a stock culture were placed on the primary leaves of two bean plants 6 to 8 inches in height, growing in a 21/2 inch clay pot. 150-200 Mites, a sufficient number for testing, transferred from the excised leaves to the fresh plants in a period of 24 hours. Following the 24 hour transfer period, the excised leaves were removed from the infested plants. The test compounds were formulated by diluting the stock suspension with water to give a suspension containing 500 parts of test compound per million parts of final formulation. The potted plants (one pot per compound) were placed on a revolving turntable and sprayed with 100-110 milliliters of test compound formulation by use of a DeVilbiss spray gun set at 40 psig. air pressure. This application, which lasted 25 seconds, was sufficient to wet the plants to run-off. As a control, 100-110 milliliters of a water solution containing acetone and emulsifier in the same concentrations as the test compound formulation, but containing no test compound, were also sprayed on infested plants. The sprayed plants were held at 80±5 percent relative humidity for six days, after which a mortality count of motile forms was made. Microscopic examination for motile forms was made on the leaves of the test plants. Any individual which was capable of locomotion upon prodding was considering living.
(§2) In these tests the pesticidal activity of the compounds against aphid, mite, Southern Armyworm, Mexican Bean Beetle, and house fly was rated as follows: […]

Test [2] deals with southern armyworm (Prodenia eridania, (Cram.)). In words: Southern Armyworm Leaf Spray Test. The conditions noted are these: 500 ppm, three days, larvae. How it is done: as §1
Larvae of the southern armyworm (Prodenia eridania, (Cram.)), reared on Tendergreen bean plants at a temperature of 80°±5° F. and a relative humidity of 50±5 percent, constituted the test insects.
The test compounds were formulated by diluting the stock suspension with water to give a suspension containing 500 parts of test compound per million parts of final formulation. Potted Tendergreen bean plants of standard height and age were placed on a revolving turntable and sprayed with 100-110 milliliters of test compound formulation by use of a DeVilbiss spray gun set at 10 psig air pressure. This application, which lasted 25 seconds, was sufficient to wet plants to run-off. As a control, 100-110 milliliters of a water-acetone-emulsifier solution containing no test compound were also sprayed on infested plants. When dry, the paired leaves were separated and each one was placed in a 9 centimeter Petri dish lined with moistened filter paper. Five randomly selected larvae were introduced into each dish and the dishes were closed. The closed dishes were labeled and held at 80°-85° F. for three days. Although the larvae cound easily consume the whole leaf within 24 hours, no more food was added. Larvae which were unable to move the length of the body, even upon stimulation by prodding, were considered dead. Percent mortality was […] for various concentration levels.
as §2

Test [3] deals with bean aphid (Aphis fabae Scop.). In words: Bean Aphid Foliage Spray Test. The conditions noted are these: 500 ppm, 24 hours, adults and nymphs. How it is done:
as §1
Adults and nymphal stages of the bean aphid (Aphis fabae Scop.) reared on potted dwarf nasturtium plants at 65°-70° F. and 50-70 percent relative humidity, constituted the test insects. For testing purposes, the number of aphids per pot was standardized to 100-150 by trimming plants containing excess aphids.
The test compounds were formulated by diluting the stock suspension with water to give a suspension containing 500 parts of test compound per million parts of final formulation.
The potted plants (one pot per compound tested) infested with 100-150 aphids, were placed on a revolving turntable and sprayed with 100-110 milliliters of test compound formulated by use of a DeVilbiss spray gun set at 40 psig. air pressure. This application, which lasted 25 seconds, was sufficient to wet the plants to run-off. As a control, 100-110 milliliters of a water-acetone-emulsifier solution containing no test compound were also sprayed on infested plants. After spraying, the pots were placed on their sides on a sheet of white standard mimeograph paper which had been previously ruled to facilitate counting. Temperature and humidity in the test room during the 24 hour holding period were 65°-70° F. and 50-70 percent, respectively. Aphids which fell onto the paper and were unable to remain standing after being uprighted were considered dead. Aphids remaining on the plants were observed closely for movement and those which were unable to move the length of the body upon stimulation by prodding were considered dead. Percent mortality was recorded for various concentration levels.
as §2

The test system of test [4] is Mexican bean beetle (Epilachna varivestis, Muls.). The test can be described thus: Mexican Bean Beetle Leaf Spray Test. Particulars: 500 ppm, three days, fourth instar larvae. As to the method: as §1
Fourth instar larvae of the Mexican bean beetle (Epilachna varivestis, Muls.), reared on Tendergreen bean plants at a temperature of 80°±5° F. and 50±5 percent relative humidity, were the test insects.
The test compounds were formulated by diluting the stock suspension with water to give a suspension containing 500 parts of test compound per million parts of final formation. Potted Tendergreen bean plants of standard height and age were placed on a revolving turntable and sprayed with 100-110 milliliters of test compound formulated by use of a DeVilbiss spray gun set at 10 psig air pressure. This application, which lasted 25 seconds, was sufficient to wet plants to run-off. As a control, 100-110 milliliters of a water-acetone-emulsifier solution containing no test compound were also sprayed on infested plants. When dry, the paired leaves were separated and each was placed in a 9 centimeter Petri dish lined with moistened filter paper. Five randomly selected larvae were introduced into each dish, and the dishes were closed. The closed dishes were labeled and held at a temperature of 80°±5° F. for three days. Although the larvae could easily consume the leaf within 24 to 48 hours, no more food was added. Larvae which were unable to move the length of the body, even upon stimulation, were considered dead.
as §2

The test system of test [5] is house flies (Musca domestica, L.). In words: Fly Bait Test. The conditions noted are these: 500 ppm, 24 hours, adults. How it is done: as §1
Four to six day old adult house flies (Musca domestica, L.), reared according to the specifications of the Chemical Specialities Manufacturing Association (Blue Book, McNair-Dorland Co., N.Y. 1954; pages 243-244, 261) under controlled conditions of 80°±5° F. and 50±5 percent relative humidity, were the test insects. The flies were immobilized by anesthetizing with carbon dioxide and 25 immobilized individuals, males and females, were transferred to a cage consisting of a standard food strainer about 5 inches in diameter which was inverted over a wrapping-paper-covered surface. The test compounds were formulated by diluting the stock suspension with a 10 percent (by weight) sugar solution to give a suspension containing 500 parts of test compound per million parts of final formulation, by weight. Ten milliliters of the test formulation were added to a souffle cup containing a 1-inch square of an absorbent cotton pad. This bait cup was introduced and centered on the blotting paper under the food strainer prior to admitting the anesthetized flies. The caged flies were allowed to feed on the bait for 24 hours, at a temperature of 80°±5° F. and the relative humidity of 50±5 percent.
as §2

In the case of `CCN1C(=O)CSC(=NOC(=O)NC)C1C` (stereo not drawn) [2-[O-(Methylcarbamoyl)oximino]-4-ethyl-3-methyltetrahydro-1,4-thiazin-5-one], the “Biological Activity, Mite” value in test [1] was “A”. In addition, the “Biological Activity, Southern Armyworm” value in test [2] is “B”. For the same molecule, the “Biological Activity, Aphid” value in test [3] is given as “B”. Further, the “Biological Activity, Mexican Bean Beetle” value in test [4] is on record as “B”. In addition, the “Biological Activity, House Fly” value in test [5] is “A”.
Turning to `CCCCN1C(=O)CSC(=NOC(=O)NC)C1C` (stereo not drawn) [2-[O-(Methylcarbamoyl)oximino]-4-butyl-3-methyltetrahydro-1,4-thiazin-5-one], the “Biological Activity, Mite” value in test [1] is reported as “C”. Besides, the “Biological Activity, Southern Armyworm” value in test [2] is reported as “C”. In test [3], the “Biological Activity, Aphid” value is recorded as “C”. Moreover, the “Biological Activity, Mexican Bean Beetle” value in test [4] was “B”. For the same molecule, the “Biological Activity, House Fly” value in test [5] is on record as “B”.
In the case of `CC(C)CN1C(=O)CSC(=NO)C1C` (stereo not drawn) [2-Oximino-4-isobutyl-3-methyltetrahydro-1,4-thiazin-5-one], the “Biological Activity, Mite” value in test [1] was “C”. The “Biological Activity, Southern Armyworm” value in test [2] is reported as “C”. Further, the “Biological Activity, Aphid” value in test [3] was “C”. The “Biological Activity, Mexican Bean Beetle” value in test [4] is on record as “C”. Moreover, the “Biological Activity, House Fly” value in test [5] is recorded as “C”.
Consider `CN1C(=O)CSC(=NO)C1(C)C` [2-Oximino-3,3,4-trimethyltetrahydro-1,4-thiazin-5-one], for which, in test [1], the “Biological Activity, Mite” value is recorded as “C”. The “Biological Activity, Southern Armyworm” value in test [2] is “C”. The “Biological Activity, Aphid” value in test [3] was “C”. In addition, the “Biological Activity, Mexican Bean Beetle” value in test [4] is “C”. Further, in test [5], the “Biological Activity, House Fly” value was “C”.
Consider `CNC(=O)ON=C1SCC(=O)N(CC(C)C)C1C` (stereo not drawn) [2-[O-(Methylcarbamoyl)oximino]-4-isobutyl-3-methyltetrahydro-1,4-thiazin-5-one], for which the “Biological Activity, Mite” value in test [1] is “C”. Further, the “Biological Activity, Southern Armyworm” value in test [2] was “C”. Also, the “Biological Activity, Aphid” value in test [3] is recorded as “C”. Further, the “Biological Activity, Mexican Bean Beetle” value in test [4] is “C”. Also, the “Biological Activity, House Fly” value in test [5] is listed as “A”.
With `CN(C)SN(C)C(=O)ON=C1SCC(=O)NC1(C)C` [2-[O-(N-Dimethylaminosulfenyl-N-methylcarbamoyl)oximino]-3,3-dimethyltetrahydro-1,4-thiazin-5-one], the “Biological Activity, Mite” value in test [1] was “A”. Also, in test [2], the “Biological Activity, Southern Armyworm” value is given as “A”. In addition, the “Biological Activity, Aphid” value in test [3] is listed as “A”. Further, in test [4], the “Biological Activity, Mexican Bean Beetle” value was “A”. For the same molecule, in test [5], the “Biological Activity, House Fly” value was “A”.
`CN(SN1CCOCC1)C(=O)ON=C1SCC(=O)NC1(C)C` [2-[O-(N-Morpholinosulfenyl-N-methylcarbamoyl)oximino]-3,3-dimethyltetrahydro-1,4-thiazin-5-one]: in test [2], the “Biological Activity, Southern Armyworm” value was “A”. The “Biological Activity, Aphid” value in test [3] is on record as “A”. In test [4], the “Biological Activity, Mexican Bean Beetle” value is listed as “A”. In addition, in test [5], the “Biological Activity, House Fly” value is listed as “A”.
Take `CNC(=O)ON=C1SCC(=O)N(C)C1(C)C` [2-[O-(Methylcarbamoyl)oximino]-3,3,4-trimethyltetrahydro-1,4-thiazin-5-one]: the “Biological Activity, Mite” value in test [1] was “A”. In test [2], the “Biological Activity, Southern Armyworm” value was “B”. Moreover, the “Biological Activity, Aphid” value in test [3] was “B”. In addition, in test [4], the “Biological Activity, Mexican Bean Beetle” value is reported as “A”. In addition, in test [5], the “Biological Activity, House Fly” value is on record as “A”.
As to `CC(=O)N(C)C(=O)ON=C1SCC(=O)N(C)C1C` (stereo not drawn) [2-[O-(N-Acetyl-N-methylcarbamoyl)oximino]-3,4-dimethyltetrahydro-1,4-thiazin-5-one], the “Biological Activity, Mite” value in test [1] is on record as “C”. For the same molecule, the “Biological Activity, Southern Armyworm” value in test [2] is on record as “A”. For the same molecule, the “Biological Activity, Aphid” value in test [3] is listed as “C”. The “Biological Activity, Mexican Bean Beetle” value in test [4] was “C”. The “Biological Activity, House Fly” value in test [5] is given as “C”.
In the case of `CCCCN1C(=O)CSC(=NO)C1C` (stereo not drawn) [2-Oximino-4-butyl-3-methyltetrahydro-1,4-thiazin-5-one], the “Biological Activity, Mite” value in test [1] is “C”. Further, the “Biological Activity, Southern Armyworm” value in test [2] is listed as “C”. In test [3], the “Biological Activity, Aphid” value is “C”. Besides, the “Biological Activity, Mexican Bean Beetle” value in test [4] is “C”. In addition, the “Biological Activity, House Fly” value in test [5] is on record as “C”.
Take `CNC(=O)ON=C1SCC(=O)N(C)C1C` (stereo not drawn) [2-[O-(methylcarbamoyl)oximino]-3,4-dimethyltetrahydro-1,4-thiazin-5-one]: the “Biological Activity, Mite” value in test [1] is reported as “A”. Besides, the “Biological Activity, Southern Armyworm” value in test [2] is “C”. Besides, in test [3], the “Biological Activity, Aphid” value is recorded as “A”. Further, the “Biological Activity, Mexican Bean Beetle” value in test [4] is recorded as “A”. In addition, the “Biological Activity, House Fly” value in test [5] is “A”.
Regarding `CNC(=O)ON=C1SCC(=O)NC1(C)C` [2-[O-(Methylcarbamoyl)oximino]-3,3-dimethyltetrahydro-1,4-thiazin-5-one], the “Biological Activity, Mite” value in test [1] is “A”. For the same molecule, in test [2], the “Biological Activity, Southern Armyworm” value was “A”. In addition, the “Biological Activity, Aphid” value in test [3] was “A”. The “Biological Activity, Mexican Bean Beetle” value in test [4] was “A”. Further, the “Biological Activity, House Fly” value in test [5] was “A”.
`CC1C(=NO)SCC(=O)N1C` (stereo not drawn) [2-Oximino-3,4-dimethyltetrahydro-1,4-thiazin-5-one]: in test [1], the “Biological Activity, Mite” value is recorded as “C”. Also, the “Biological Activity, Southern Armyworm” value in test [2] is reported as “C”. Moreover, in test [4], the “Biological Activity, Mexican Bean Beetle” value is given as “C”. The “Biological Activity, House Fly” value in test [5] is “C”.
